40 compounds from patent publication US20100173930A1, “Certain Chemical Entities, Compositions and Methods” (priority 2006, published 2010) can be followed below.

This experiment concerns SKM MYOFIBRIL
The experiment can be described thus: SKM myofibril AC1.4 (ATPase, PK/LDH coupled enzyme system). Further: unit not given here. In kind it is biochemical. The settings on record: screen at pCa=6.5.

Consider `Oc1ccc(-c2nc3ccccn3c2NCc2ccc(Cl)cc2)cc1` [4-(3-{[(4-chlorophenyl)methyl]amino}-4-hydroimidazo[1,2-a]pyridin-2-yl)phenol], for which the “SKM MYOFIBRIL AC1.4 (median)” value was found to be 21.4002.
Regarding `Cc1ccc2cc(-c3nc4cc(C)ccn4c3NCc3cccc(Cl)c3)c(O)nc2c1` [3-(3-{[(3-chlorophenyl)methyl]amino}-7-methyl(4-hydroimidazo[1,2-a]pyridin-2-yl))-7-methylquinolin-2-ol], the “SKM MYOFIBRIL AC1.4 (median)” value is 9.2086.
Regarding `CCC(C)(C)Nc1c(-c2cc3cccc(C)c3nc2O)nc2ccccn12` [3-{3-[(1,1-dimethylpropyl)amino](4-hydroimidazo[1,2-a]pyridin-2-yl)}-8-methylquinolin-2-ol], the “SKM MYOFIBRIL AC1.4 (median)” value came out at 2.3075.
For the compound `CC(C)(C)CC(C)(C)Nc1c(-c2ccc(O)cc2)nc2ccccn12` [4-{3-[(1,1,3,3-tetramethylbutyl)amino]-4-hydroimidazo[1,2-a]pyridin-2-yl}phenol], the “SKM MYOFIBRIL AC1.4 (median)” value was 23.4246.
In the case of `CC(C)(O)c1ccc2nc(-c3ccccc3O)c(NCc3cccc(Cl)c3)n2c1` [2-(3-{[(3-chlorophenyl)methyl]amino}-6-(1-hydroxy-isopropyl)-4-hydroimidazo[1,2-a]pyridin-2-yl)phenol], the “SKM MYOFIBRIL AC1.4 (median)” value is given as 2.0993.
Turning to `Cc1ccc(-c2nc3cc(C)ccn3c2NC2CCCC2)cc1` [cyclopentyl[7-methyl-2-(4-methylphenyl)(4-hydroimidazo[1,2-a]pyridin-3-yl)]amine], the “SKM MYOFIBRIL AC1.4 (median)” value came to 4.2349.
In the case of `COc1ccc(-c2nc3cc(C)ccn3c2NCc2cccc(Cl)c2)c(O)c1` [2-(3-{[(3-chlorophenyl)methyl]amino}-7-methyl(4-hydroimidazo[1,2-a]pyridin-2-yl))-5-methoxyphenol] it was 27.0817; in that of `Fc1ccc(-c2nc3ccccn3c2NC2CCCCC2)cc1` [cyclohexyl[2-(4-fluorophenyl)(4-hydroimidazo[1,2-a]pyridin-3-yl)]amine], 9.155; in that of `Cc1cccn2c(NC3CCCC3)c(-c3ccccc3O)nc12` [2-[3-(cyclopentylamino)-8-methyl-4-hydroimidazo[1,2-a]pyridin-2-yl]phenol], 11.3023.
In the case of `CC(CO)c1ccn2c(NCc3cccc(Cl)c3)c(-c3ccccc3O)nc2c1` (stereo not shown) [2-(3-{[(3-chlorophenyl)methyl]amino}-7-(1-hydroxy-isopropyl)-4-hydroimidazo[1,2-a]pyridin-2-yl)phenol] it was 1.2697; in that of `Cc1ccc2cc(-c3nc4cc(C)ccn4c3NCc3ccc(F)cc3)c(O)nc2c1` [3-(3-{[(4-fluorophenyl)methyl]amino}-7-methyl(4-hydroimidazo[1,2-a]pyridin-2-yl))-7-methylquinolin-2-ol], 38.7091.
As to `COc1ccccc1CNc1c(-c2ccccc2O)nc2cc(C)ccn12` [2-(3-{[(2-methoxyphenyl)methyl]amino}-7-methyl-4-hydroimidazo[1,2-a]pyridin-2-yl)phenol], the “SKM MYOFIBRIL AC1.4 (median)” value was found to be 1.9683.
The result for `CN(C)CCNC(=O)c1ccc2nc(-c3ccccc3O)c(NCc3ccc(F)cc3)n2c1` [N-[2-(dimethylamino)ethyl](3-{[(4-fluorophenyl)methyl]amino}-2-(2-hydroxyphenyl)(4-hydroimidazo[1,2-a]pyridin-6-yl))carboxamide] reads 4.4632; that for `COc1ccc(-c2nc3ccccn3c2NC2CCCCC2)cc1` [cyclohexyl[2-(4-methoxyphenyl)(4-hydroimidazo[1,2-a]pyridin-3-yl)]amine], 16.6703.
In the case of `COC(=O)c1ccc2nc(-c3ccccc3O)c(NCc3ccc(F)cc3)n2c1` [methyl 3-{[(4-fluorophenyl)methyl]amino}-2-(2-hydroxyphenyl)-4-hydroimidazo[1,2-a]pyridine-6-carboxylate] it was 4.201; in that of `CCc1ccc2nc(-c3ccc(O)cc3)c(NC3CCCCC3)n2c1` [4-[3-(cyclohexylamino)-6-ethyl-4-hydroimidazo[1,2-a]pyridin-2-yl]phenol], 4.3136; in that of `Cc1cccc(CNc2c(-c3ccccc3O)nc3cc(C)ccn23)c1` [2-(7-methyl-3-{[(3-methylphenyl)methyl]amino}-4-hydroimidazo[1,2-a]pyridin-2-yl)phenol], 0.9541.
Consider `N#Cc1ccn2c(NC3CCCC3)c(-c3ccc(O)cc3)nc2c1` [3-(cyclopentylamino)-2-(4-hydroxyphenyl)-4-hydroimidazo[1,2-a]pyridine-7-carbonitrile], for which the “SKM MYOFIBRIL AC1.4 (median)” value was 17.9621.
Turning to `C[C@@H](Nc1c(-c2ccc(O)cc2)nc2ccccn12)c1ccccc1` [4-{3-[((1R)-1-phenylethyl)amino]-4-hydroimidazo[1,2-a]pyridin-2-yl}phenol], the “SKM MYOFIBRIL AC1.4 (median)” value is recorded as 28.0451.
In the case of `Cc1ccn2c(NCc3cccc(Cl)c3)c(-c3ccccc3O)nc2n1` [2-(3-{[(3-chlorophenyl)methyl]amino}-7-methyl-4-hydroimidazo[1,2-a]pyrimidin-2-yl)phenol] it was 7.147.
The result for `COc1cccc(-c2nc3ccccn3c2NCc2cccc(Cl)c2)c1` [[(3-chlorophenyl)methyl][2-(3-methoxyphenyl)(4-hydroimidazo[1,2-a]pyridin-3-yl)]amine] reads 35.6445.
In the case of `Oc1ccccc1-c1nc2ccc(Br)cn2c1NCc1ccc(F)cc1` [2-(6-bromo-3-{[(4-fluorophenyl)methyl]amino}-4-hydroimidazo[1,2-a]pyridin-2-yl)phenol] it was 5.6018; in that of `Cc1ccn2c(NCc3cccc(Cl)c3)c(-c3ccc(O)cc3O)nc2c1` [4-(3-{[(3-chlorophenyl)methyl]amino}-7-methyl-4-hydroimidazo[1,2-a]pyridin-2-yl)benzene-1,3-diol], 22.1516.
Consider `Oc1ccccc1-c1nc2cnccn2c1NCc1ccc(F)cc1` [2-(3-{[(4-fluorophenyl)methyl]amino}-4-hydroimidazo[1,2-a]pyrazin-2-yl)phenol], for which the “SKM MYOFIBRIL AC1.4 (median)” value was 4.6013.
In the case of `CN(C)C(=O)c1ccc2nc(-c3ccccc3O)c(NCc3cccc(Cl)c3)n2c1` [(3-{[(3-chlorophenyl)methyl]amino}-2-(2-hydroxyphenyl)(4-hydroimidazo[1,2-a]pyridin-6-yl))-N,N-dimethylcarboxamide] it was 16.9244; in that of `Oc1ccccc1-c1nc2ccccn2c1NCc1ccc(F)cc1` [2-(3-{[(4-fluorophenyl)methyl]amino}-4-hydroimidazo[1,2-a]pyridin-2-yl)phenol], 3.2661; in that of `CCc1ccn2c(NC3CCCC3)c(-c3ccc(O)cc3)nc2c1` [4-[3-(cyclopentylamino)-7-ethyl-4-hydroimidazo[1,2-a]pyridin-2-yl]phenol], 7.5674.
In the case of `NC(=O)c1ccc2nc(-c3ccccc3O)c(NCc3cccc(Cl)c3)n2c1` [3-{[(3-chlorophenyl)methyl]amino}-2-(2-hydroxyphenyl)-4-hydroimidazo[1,2-a]pyridine-6-carboxamide], the “SKM MYOFIBRIL AC1.4 (median)” value is 1.2788.
For the compound `Cc1cccc2cc3c(nc12)OCC(=O)N(Cc1ccc(Cl)cc1)C3` [4-[(4-chlorophenyl)methyl]-10-methyl-2H,5H-1,4-oxazaperhydroepino[7,6-b]quinolin-3-one], the “SKM MYOFIBRIL AC1.4 (median)” value came to 18.1529.
Regarding `Cc1ccn2c(NCc3ccc(Cl)cc3)c(-c3ccccc3O)nc2c1` [2-(3-{[(4-chlorophenyl)methyl]amino}-7-methyl-4-hydroimidazo[1,2-a]pyridin-2-yl)phenol], the “SKM MYOFIBRIL AC1.4 (median)” value amounted to 3.3207.
For `Cc1ccc2nc(-c3ccccc3O)c(NCc3cccc(Cl)c3)n2c1` [2-(3-{[(3-chlorophenyl)methyl]amino}-6-methyl-4-hydroimidazo[1,2-a]pyridin-2-yl)phenol], the “SKM MYOFIBRIL AC1.4 (median)” value came out at 1.1197.
The result for `Oc1ccc(-c2nc3ccc(Br)cn3c2NC2CCCCC2)cc1` [4-[6-bromo-3-(cyclohexylamino)-4-hydroimidazo[1,2-a]pyridin-2-yl]phenol] reads 12.8016; that for `Oc1ccccc1-c1nc2ccccn2c1NCc1cccc(Cl)c1` [2-(3-{[(3-chlorophenyl)methyl]amino}-4-hydroimidazo[1,2-a]pyridin-2-yl)phenol], 4.2459; that for `Oc1ccc(-c2nc3ccccn3c2NCc2ccc(F)cc2F)cc1` [4-(3-{[(2,4-difluorophenyl)methyl]amino}-4-hydroimidazo[1,2-a]pyridin-2-yl)phenol], 37.1035.
The result for `COCCNC(=O)c1ccc2nc(-c3ccccc3O)c(NCc3ccc(F)cc3)n2c1` [(3-{[(4-fluorophenyl)methyl]amino}-2-(2-hydroxyphenyl)(4-hydroimidazo[1,2-a]pyridin-6-yl))-N-(2-methoxyethyl)carboxamide] reads 4.3059; that for `Cc1ccn2c(NCc3cccc(Cl)c3)c(-c3ncccc3O)nc2c1` [2-(3-{[(3-chlorophenyl)methyl]amino}-7-methyl-4-hydroimidazo[1,2-a]pyridin-2-yl)pyridin-3-ol], 36.9847.
In the case of `C[C@@H](Nc1c(-c2ccc(O)cc2)nc2ccccn12)C(C)(C)C` [4-{3-[((1R)-1,2,2-trimethylpropyl)amino]-4-hydroimidazo[1,2-a]pyridin-2-yl}phenol] it was 15.0489.
As to `Cc1ccn2c(NCc3ccccc3Cl)c(-c3ccccc3O)nc2c1` [2-(3-{[(2-chlorophenyl)methyl]amino}-7-methyl-4-hydroimidazo[1,2-a]pyridin-2-yl)phenol], the “SKM MYOFIBRIL AC1.4 (median)” value came to 1.165.
The result for `Cc1ccn2c(NCc3ccc(F)cc3)c(-c3ccccc3O)nc2c1` [2-(3-{[(4-fluorophenyl)methyl]amino}-7-methyl-4-hydroimidazo[1,2-a]pyridin-2-yl)phenol] reads 1.1306; that for `Cc1ccc(-c2nc3ccccn3c2NC2CCCCC2)cc1` [cyclohexyl[2-(4-methylphenyl)(4-hydroimidazo[1,2-a]pyridin-3-yl)]amine], 25.2334.
